Legend:
[1] = test system: OGD cells (retinal ganglion cells); experiment: Increase in survival of OGD cells, dose-dependent data; assay type: cell-based, Sprague-Dawley rat
Experimental: (§1) Untreated OGD cells were also included as controls.
(§2) The tissue was then disrupted sequentially with a 1 ml pipette, in a solution containing ovomucoid (Boehringer-Mannheim), DNase (Sigma), and bovine serum albumin (BSA; Sigma) to yield a single cell suspension. The cells were then washed in a suspension of ovomucoid/BSA.

[2] = test system: Oxygen/Glucose Deprived RGCs; experiment: Protection of oxygen/glucose deprived (OGD) retinal ganglion cells, EC50; assay type: cell-based, Sprague-Dawley rat; conditions: Rattus norvegicus; compound added from 30 min prior to OGD, during OGD, and 24 and 48 h after OGD
Experimental: as §1, §2

With `Oc1cccc2nc(Cc3nc4ccccc4[nH]3)[nH]c12` [SNX-926, 2-(benzimidazol-2-ylmethyl)benzimidazol-7-ol] the activation at 0.001 µM ([1]; Rattus norvegicus, 0.001 μM, read-out: Percent Increase in Survival over OGD Control Cells) was under 50%, the activation at 0.01 µM ([1]; Rattus norvegicus, 0.01 μM, read-out: Percent Increase in Survival over OGD Control Cells) was 50 to 100% and the activation at 0.1 µM ([1]; Rattus norvegicus, 0.1 μM, read-out: Percent Increase in Survival over OGD Control Cells) was over 100%. The activation at 1 µM ([1]; Rattus norvegicus, 1 μM, read-out: Percent Increase in Survival over OGD Control Cells) was over 100%, the activation at 10 µM ([1]; Rattus norvegicus, 10 μM, read-out: Percent Increase in Survival over OGD Control Cells) was 50 to 100% and the “TI (therapeutic index)” value ([1]; rat, retinal ganglion cells) was over 250. The EC50 [2] was 40 nM.

Reference: patent US20040072862A1, “Compositions for treating ischemia-related neuronal damage” (priority 1999, published 2004)
